Here are results for three molecules from ChEMBL document CHEMBL1201862, “PubChem BioAssay data set” (2004).

Experiment [1] addresses Calcium/calmodulin-dependent protein kinase type II subunit gamma (Homo sapiens, UniProt Q13555). Format: functional.
The target of experiment [2] is Serine/threonine-protein kinase 17A (Homo sapiens, UniProt Q9UEE5). Format: functional.
In experiment [3] the target is SRSF protein kinase 1 (Homo sapiens, UniProt Q96SB4). The class given is functional.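 Further: measured as one member of a kinome-wide kinase profiling panel.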
In experiment [4] the target is MAP kinase-activated protein kinase 5 (Homo sapiens, UniProt Q8IW41). The class given is functional.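 Further: measured as one member of a kinome panel.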
Experiment [5] concerns the target Cell division cycle 7-related protein kinase (Homo sapiens, UniProt O00311). Format: functional.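 Further: value obtained from a kinome-wide kinase panel.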
In experiment [6] the target is Tyrosine-protein kinase BTK (Homo sapiens, UniProt Q06187). The class given is functional.
In experiment [7] the target is Calcium/calmodulin-dependent protein kinase type II subunit delta (Homo sapiens, UniProt Q13557). The class given is functional.
For experiment [8], the target named is Casein kinase I isoform alpha (Homo sapiens, UniProt P48729). The class given is functional.
In experiment [9] the target is Ribosomal protein S6 kinase alpha-5 (Homo sapiens, UniProt O75582). The class given is functional.
The target in experiment [10] is Serine/threonine-protein kinase TAO1 (Homo sapiens, UniProt Q7L7X3). The class given is functional.
In experiment [11] the target is Proto-oncogene tyrosine-protein kinase ROS (Homo sapiens, UniProt P08922). Format: functional.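 Further: ROS1 tested as one member of a kinome-wide kinase panel.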
Experiment [12] addresses Mitogen-activated protein kinase 13 (Homo sapiens, UniProt O15264). Format: functional.
For experiment [13], the target named is Misshapen-like kinase 1 (Homo sapiens, UniProt Q8N4C8). The class given is functional.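 Further: kinome panel screen with MINK as the panel member.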
Experiment [14] deals with Dual specificity tyrosine-phosphorylation-regulated kinase 4 (Homo sapiens, UniProt Q9NR20). The class given is functional.
The target of experiment [15] is Protein kinase C iota type (Homo sapiens, UniProt P41743). Format: functional.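 Further: measured within a kinome-wide kinase panel, PRKCI as panel member.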
In experiment [16] the target is Tyrosine-protein kinase Fer (Homo sapiens, UniProt P16591). The class given is functional.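 Further: FER tested as one member of a kinome panel.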
Experiment [17] has as its target Homeodomain-interacting protein kinase 4 (Homo sapiens, UniProt Q8NE63). Format: functional.
Experiment [18] has as its target Serine/threonine-protein kinase DCLK1 (Homo sapiens, UniProt O15075). The class given is functional.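 Further: affinity for DCLK1 (listed as DCAMKL1) measured as one member of a kinome-wide kinase profiling panel.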
The target in experiment [19] is Cyclin-dependent kinase 8 (Homo sapiens, UniProt P49336). The experiment is described as follows: Navigating the Kinome. Panel member name: CDK8. The class given is functional.
Experiment [20] deals with Vascular endothelial growth factor receptor 1 (Homo sapiens, UniProt P17948). Format: functional.
In experiment [21] the target is STE20-like serine/threonine-protein kinase (Homo sapiens, UniProt Q9H2G2). Format: functional.
The target of experiment [22] is Serine/threonine-protein kinase BRSK1 (Homo sapiens, UniProt Q8TDC3). The class given is functional.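 Further: measured within a kinome-wide kinase panel, with the target listed as KIAA1811.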
Experiment [23] addresses Tyrosine-protein kinase FRK (Homo sapiens, UniProt P42685). The class given is functional.
Experiment [24] concerns the target Protein kinase C delta type (Homo sapiens, UniProt Q05655). The class given is functional.
Experiment [25] addresses Tyrosine-protein kinase Lck (Homo sapiens, UniProt P06239). Format: functional.
The target in experiment [26] is Serine/threonine-protein kinase PLK1 (Homo sapiens, UniProt P53350). The class given is functional.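 Further: PLK1 measured as one member of a kinome-wide profiling panel.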
The target of experiment [27] is Serine/threonine-protein kinase MRCK alpha (Homo sapiens, UniProt Q5VT25). The class given is functional.
The target of experiment [28] is Cystic fibrosis transmembrane conductance regulator/Golgi-associated PDZ and coiled-coil motif-containing protein (Homo sapiens, UniProt P13569+Q9HD26). The experiment is described as follows: potency against CAL PDZ-peptide interaction – biochemical, fluorescence polarization, Cerulean-tagged CAL PDZ, cherry-picks, dose response (AID 504773).
The target of experiment [29] is T1, Hexokinase-1 (Homo sapiens, UniProt P19367).
T1 sequence (P19367 whole entry): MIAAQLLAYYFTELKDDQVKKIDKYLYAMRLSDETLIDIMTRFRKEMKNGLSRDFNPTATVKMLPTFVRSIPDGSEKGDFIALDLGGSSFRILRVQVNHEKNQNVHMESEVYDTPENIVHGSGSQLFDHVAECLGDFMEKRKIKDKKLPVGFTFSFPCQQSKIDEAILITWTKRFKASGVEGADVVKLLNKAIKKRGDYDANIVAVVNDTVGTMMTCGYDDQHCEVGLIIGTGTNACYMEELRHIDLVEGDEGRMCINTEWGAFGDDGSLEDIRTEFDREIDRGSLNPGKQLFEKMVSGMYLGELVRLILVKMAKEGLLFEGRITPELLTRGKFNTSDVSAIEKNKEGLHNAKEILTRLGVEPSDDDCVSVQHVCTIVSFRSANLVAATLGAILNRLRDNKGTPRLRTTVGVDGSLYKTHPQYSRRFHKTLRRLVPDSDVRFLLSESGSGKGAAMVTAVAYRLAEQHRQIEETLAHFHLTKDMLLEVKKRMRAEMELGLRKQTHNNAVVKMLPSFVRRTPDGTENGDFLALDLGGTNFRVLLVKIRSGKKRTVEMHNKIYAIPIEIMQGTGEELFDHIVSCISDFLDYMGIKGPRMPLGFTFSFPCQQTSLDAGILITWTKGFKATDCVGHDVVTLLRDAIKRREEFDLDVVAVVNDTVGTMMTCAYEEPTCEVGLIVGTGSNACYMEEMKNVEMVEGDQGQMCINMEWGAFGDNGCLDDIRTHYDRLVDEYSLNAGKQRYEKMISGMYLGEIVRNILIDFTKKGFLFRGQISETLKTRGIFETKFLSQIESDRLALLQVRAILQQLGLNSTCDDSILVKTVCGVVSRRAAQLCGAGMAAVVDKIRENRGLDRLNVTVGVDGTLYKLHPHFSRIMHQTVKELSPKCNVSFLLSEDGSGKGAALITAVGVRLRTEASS
Nature of the experiment: hexokinase 1 activity inhibitors, potency – biochemical, set 2, resazurin fluorescence coupled readout, selectivity assay for HKDC1 inhibitor project, SAR follow-up (AID 588356). Format: functional.

Experiment [30] concerns the target PglD (Campylobacter jejuni, UniProt O86157). Nature of the experiment: inhibition of C. jejuni PglD N-acetyltransferase – biochemical, DTNB absorbance, cherry-picked samples, set 2, dose response (AID 624257). Format: functional.

Each structure is given as a SMILES string. Active and inactive are the calls of the source.

MAP kinase-activated protein kinase 5, sequence (Q8IW41 whole entry): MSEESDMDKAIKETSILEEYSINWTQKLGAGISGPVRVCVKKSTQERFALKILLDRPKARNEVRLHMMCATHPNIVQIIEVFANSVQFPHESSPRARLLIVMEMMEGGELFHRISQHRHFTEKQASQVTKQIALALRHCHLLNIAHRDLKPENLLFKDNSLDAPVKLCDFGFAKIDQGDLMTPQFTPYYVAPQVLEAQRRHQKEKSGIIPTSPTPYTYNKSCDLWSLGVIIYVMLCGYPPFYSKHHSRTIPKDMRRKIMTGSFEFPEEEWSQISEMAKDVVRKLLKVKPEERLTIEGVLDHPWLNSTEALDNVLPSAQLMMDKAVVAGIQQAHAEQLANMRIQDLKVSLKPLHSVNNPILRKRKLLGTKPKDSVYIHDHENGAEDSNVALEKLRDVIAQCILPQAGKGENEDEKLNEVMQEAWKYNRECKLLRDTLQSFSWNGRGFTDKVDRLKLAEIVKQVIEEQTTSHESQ
Tyrosine-protein kinase FRK, sequence (P42685 whole entry): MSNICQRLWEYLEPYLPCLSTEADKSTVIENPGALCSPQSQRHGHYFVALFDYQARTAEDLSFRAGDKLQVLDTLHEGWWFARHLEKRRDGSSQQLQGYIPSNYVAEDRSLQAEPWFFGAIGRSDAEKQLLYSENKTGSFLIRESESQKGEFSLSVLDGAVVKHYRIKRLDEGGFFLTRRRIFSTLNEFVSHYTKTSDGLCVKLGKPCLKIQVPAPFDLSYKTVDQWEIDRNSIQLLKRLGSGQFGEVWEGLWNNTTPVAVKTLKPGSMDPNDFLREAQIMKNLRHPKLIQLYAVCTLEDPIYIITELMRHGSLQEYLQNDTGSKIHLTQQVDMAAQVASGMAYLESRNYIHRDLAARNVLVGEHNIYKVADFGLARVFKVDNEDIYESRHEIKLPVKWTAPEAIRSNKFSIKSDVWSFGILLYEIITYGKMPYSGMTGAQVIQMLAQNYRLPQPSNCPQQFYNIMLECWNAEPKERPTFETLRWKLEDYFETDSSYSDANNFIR
Tyrosine-protein kinase Fer, sequence (P16591 whole entry): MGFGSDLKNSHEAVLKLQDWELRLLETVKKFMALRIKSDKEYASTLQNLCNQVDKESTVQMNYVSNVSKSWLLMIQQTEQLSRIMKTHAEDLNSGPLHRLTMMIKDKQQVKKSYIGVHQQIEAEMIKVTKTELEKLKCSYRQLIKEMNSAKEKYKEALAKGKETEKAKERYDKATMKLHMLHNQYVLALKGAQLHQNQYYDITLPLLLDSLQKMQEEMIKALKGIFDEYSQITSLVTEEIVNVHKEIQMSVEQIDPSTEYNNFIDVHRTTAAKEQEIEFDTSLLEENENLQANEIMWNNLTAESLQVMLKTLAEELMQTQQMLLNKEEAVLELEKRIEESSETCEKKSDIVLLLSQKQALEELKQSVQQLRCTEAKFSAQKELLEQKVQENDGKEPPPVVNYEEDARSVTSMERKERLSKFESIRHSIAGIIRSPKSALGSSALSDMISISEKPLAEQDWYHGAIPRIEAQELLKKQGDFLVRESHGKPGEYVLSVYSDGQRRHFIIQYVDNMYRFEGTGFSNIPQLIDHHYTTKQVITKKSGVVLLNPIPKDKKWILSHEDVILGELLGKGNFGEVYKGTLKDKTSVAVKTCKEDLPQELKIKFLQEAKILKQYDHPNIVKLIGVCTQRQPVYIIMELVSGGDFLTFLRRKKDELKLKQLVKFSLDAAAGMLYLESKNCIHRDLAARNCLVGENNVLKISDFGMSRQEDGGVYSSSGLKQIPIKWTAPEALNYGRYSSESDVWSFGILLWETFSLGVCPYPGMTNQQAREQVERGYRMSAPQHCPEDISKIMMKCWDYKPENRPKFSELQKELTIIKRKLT
Tyrosine-protein kinase BTK, sequence (Q06187 whole entry): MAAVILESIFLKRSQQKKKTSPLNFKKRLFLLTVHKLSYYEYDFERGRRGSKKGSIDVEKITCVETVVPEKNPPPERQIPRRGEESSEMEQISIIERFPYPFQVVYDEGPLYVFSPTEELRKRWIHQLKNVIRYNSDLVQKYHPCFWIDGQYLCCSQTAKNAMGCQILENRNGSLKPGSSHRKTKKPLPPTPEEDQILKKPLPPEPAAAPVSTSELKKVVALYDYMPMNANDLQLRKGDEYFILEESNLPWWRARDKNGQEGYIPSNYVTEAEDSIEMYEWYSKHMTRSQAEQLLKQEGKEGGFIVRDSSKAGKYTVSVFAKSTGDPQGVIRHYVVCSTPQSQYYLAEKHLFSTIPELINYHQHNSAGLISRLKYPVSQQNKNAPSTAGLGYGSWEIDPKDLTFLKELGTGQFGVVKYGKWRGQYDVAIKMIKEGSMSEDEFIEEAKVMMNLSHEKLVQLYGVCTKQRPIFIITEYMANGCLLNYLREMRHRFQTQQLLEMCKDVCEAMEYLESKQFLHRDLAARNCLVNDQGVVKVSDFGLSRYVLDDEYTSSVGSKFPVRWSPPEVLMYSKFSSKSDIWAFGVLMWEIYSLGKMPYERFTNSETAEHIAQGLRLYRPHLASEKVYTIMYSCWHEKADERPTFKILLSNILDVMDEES
Serine/threonine-protein kinase PLK1, sequence (P53350 whole entry): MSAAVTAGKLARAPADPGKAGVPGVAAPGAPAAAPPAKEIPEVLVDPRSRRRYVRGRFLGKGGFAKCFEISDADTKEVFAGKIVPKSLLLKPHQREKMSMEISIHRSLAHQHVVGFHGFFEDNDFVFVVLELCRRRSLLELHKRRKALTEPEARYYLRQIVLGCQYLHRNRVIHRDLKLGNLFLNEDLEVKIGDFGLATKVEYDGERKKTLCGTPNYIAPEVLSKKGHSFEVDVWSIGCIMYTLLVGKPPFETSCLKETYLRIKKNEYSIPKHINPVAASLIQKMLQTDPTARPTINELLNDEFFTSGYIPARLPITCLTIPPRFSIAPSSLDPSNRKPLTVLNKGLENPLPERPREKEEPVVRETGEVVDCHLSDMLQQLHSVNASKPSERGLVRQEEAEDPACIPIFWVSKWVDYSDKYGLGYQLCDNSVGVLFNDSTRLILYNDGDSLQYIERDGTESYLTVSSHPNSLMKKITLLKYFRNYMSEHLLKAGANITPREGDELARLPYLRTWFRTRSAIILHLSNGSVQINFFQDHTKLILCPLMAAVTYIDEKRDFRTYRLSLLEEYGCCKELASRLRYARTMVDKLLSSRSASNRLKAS
STE20-like serine/threonine-protein kinase, sequence (Q9H2G2 whole entry): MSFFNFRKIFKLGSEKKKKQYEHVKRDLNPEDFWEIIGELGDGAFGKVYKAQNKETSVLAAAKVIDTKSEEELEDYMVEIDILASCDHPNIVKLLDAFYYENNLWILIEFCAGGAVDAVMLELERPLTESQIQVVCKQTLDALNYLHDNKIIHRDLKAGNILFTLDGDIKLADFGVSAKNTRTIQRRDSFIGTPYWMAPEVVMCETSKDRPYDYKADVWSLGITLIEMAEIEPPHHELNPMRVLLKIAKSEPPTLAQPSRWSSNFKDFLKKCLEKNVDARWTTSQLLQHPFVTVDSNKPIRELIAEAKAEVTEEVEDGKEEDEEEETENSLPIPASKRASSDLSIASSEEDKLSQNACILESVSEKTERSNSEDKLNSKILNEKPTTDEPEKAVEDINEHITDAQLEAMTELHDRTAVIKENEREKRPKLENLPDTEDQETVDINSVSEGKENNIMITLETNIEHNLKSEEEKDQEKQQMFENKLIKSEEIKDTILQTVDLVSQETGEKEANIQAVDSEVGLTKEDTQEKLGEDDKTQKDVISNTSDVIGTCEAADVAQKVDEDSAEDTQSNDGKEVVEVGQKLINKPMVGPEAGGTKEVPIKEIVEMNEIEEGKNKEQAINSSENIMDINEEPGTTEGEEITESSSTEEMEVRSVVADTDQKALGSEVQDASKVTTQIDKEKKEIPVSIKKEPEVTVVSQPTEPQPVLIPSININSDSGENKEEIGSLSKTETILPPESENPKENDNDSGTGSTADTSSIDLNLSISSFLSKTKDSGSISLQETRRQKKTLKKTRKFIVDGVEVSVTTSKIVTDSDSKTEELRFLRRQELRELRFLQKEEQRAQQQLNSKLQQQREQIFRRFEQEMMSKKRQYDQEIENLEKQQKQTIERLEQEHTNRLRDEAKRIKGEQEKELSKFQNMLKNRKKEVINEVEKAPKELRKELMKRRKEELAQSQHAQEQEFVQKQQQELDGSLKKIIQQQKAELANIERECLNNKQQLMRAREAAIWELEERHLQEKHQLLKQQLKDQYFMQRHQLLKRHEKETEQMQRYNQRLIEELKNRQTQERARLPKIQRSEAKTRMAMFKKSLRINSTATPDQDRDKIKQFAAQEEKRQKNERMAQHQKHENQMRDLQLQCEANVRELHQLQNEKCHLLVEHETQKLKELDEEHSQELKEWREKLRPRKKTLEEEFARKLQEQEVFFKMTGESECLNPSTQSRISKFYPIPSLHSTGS
Calcium/calmodulin-dependent protein kinase type II subunit gamma, sequence (Q13555 whole entry): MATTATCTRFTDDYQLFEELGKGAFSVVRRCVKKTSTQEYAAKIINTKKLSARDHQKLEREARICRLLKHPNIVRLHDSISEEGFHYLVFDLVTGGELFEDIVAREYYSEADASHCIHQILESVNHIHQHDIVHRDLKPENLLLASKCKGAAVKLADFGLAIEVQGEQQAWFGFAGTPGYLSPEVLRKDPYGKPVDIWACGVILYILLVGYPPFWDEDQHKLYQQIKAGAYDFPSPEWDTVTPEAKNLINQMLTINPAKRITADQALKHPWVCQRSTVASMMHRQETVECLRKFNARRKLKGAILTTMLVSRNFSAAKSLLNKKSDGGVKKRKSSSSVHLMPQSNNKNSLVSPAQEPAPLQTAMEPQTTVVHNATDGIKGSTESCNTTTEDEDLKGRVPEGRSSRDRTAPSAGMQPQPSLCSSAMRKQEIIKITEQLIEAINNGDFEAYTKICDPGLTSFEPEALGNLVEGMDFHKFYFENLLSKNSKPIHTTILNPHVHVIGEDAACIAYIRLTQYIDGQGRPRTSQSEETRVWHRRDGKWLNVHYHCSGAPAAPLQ

As for `Cc1n[nH]c2cnc(-c3cncc(OCC(N)Cc4cccc(C(F)(F)F)c4)c3)cc12` (stereo not given), the Ki in experiment [1] was 10 nM (active); in [2] it was 501 nM (active); in [3] it was 631 nM (active); in experiment [4], > 1.58 µM (inactive); in experiment [5], 10 nM (active); in experiment [6], > 1.26 µM (inactive). Further, the Ki in [7] was 5.01 nM (active); in experiment [8], 2.51 µM (active); in experiment [9], 79.4 nM (active); in experiment [10], 31.6 nM (active); in experiment [11], 398 nM (active); in experiment [12], 1.58 µM (active). In addition, the Ki was 3.98 nM (active) in experiment [13]; 126 nM (active) in experiment [14]; 251 nM (active) in [15]; > 1.58 µM (inactive) in experiment [16]; 25.1 nM (active) in [17]; 794 nM (active) in experiment [18]. The Ki in experiment [19] was 12.6 nM (active); in [20], > 398 nM (inactive); in experiment [21], 200 nM (active); in [22] it was 2 µM (active); in experiment [23], > 2.51 µM (inactive).

`Cc1c(C=O)c(O)n2c(nc3ccccc32)c1C#N`: the Ki in [24] is > 7.94 µM (inactive); in [25], > 2.51 µM (inactive); in experiment [26], 1.26 µM (active); in [27] it was > 10 µM (inactive).

Regarding `CC(=O)NC1C(=O)N(CCN2CCOCC2)c2ccc(Cl)cc21` (stereo not given), the AC50 was 26.8 µM (active) in experiment [28] and 17.5 µM (active) in [30]. In addition, in [29], the IC50 is > 80 µM (inactive).
